SMILES strings stand for the structures. Values joined by “and” are separate entries in the source; they are usually repeats but may differ in a detail not shown here. Identical values can stand only once.

Assay [1] has as its target Matrix metalloproteinase-9 (Homo sapiens, UniProt P14780). Description: In vitro inhibition of Matrix metalloprotease-9.
Assay [2] has as its target T1, Interstitial collagenase (Homo sapiens, UniProt P03956).
T1 sequence (P03956 whole entry): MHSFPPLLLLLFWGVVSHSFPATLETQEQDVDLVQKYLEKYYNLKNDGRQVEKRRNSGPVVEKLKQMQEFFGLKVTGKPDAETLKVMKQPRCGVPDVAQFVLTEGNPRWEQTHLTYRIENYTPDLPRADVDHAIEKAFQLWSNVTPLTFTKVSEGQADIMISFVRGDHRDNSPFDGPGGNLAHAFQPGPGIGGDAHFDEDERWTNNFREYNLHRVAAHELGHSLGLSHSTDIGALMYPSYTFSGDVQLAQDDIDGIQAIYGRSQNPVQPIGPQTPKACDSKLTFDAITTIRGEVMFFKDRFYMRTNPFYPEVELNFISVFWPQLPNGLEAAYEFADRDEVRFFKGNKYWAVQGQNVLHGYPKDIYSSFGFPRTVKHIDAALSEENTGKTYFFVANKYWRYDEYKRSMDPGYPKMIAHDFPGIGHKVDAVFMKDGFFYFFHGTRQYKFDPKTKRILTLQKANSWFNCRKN
Briefly: In vitro inhibition of Matrix metalloprotease-1.

Assay [3] deals with T2, Disintegrin and metalloproteinase domain-containing protein 17 (Homo sapiens, UniProt P78536). Description: In vitro inhibition of TNF-alpha converting enzyme.
T2 sequence (P78536 whole entry, the tested form may be a part): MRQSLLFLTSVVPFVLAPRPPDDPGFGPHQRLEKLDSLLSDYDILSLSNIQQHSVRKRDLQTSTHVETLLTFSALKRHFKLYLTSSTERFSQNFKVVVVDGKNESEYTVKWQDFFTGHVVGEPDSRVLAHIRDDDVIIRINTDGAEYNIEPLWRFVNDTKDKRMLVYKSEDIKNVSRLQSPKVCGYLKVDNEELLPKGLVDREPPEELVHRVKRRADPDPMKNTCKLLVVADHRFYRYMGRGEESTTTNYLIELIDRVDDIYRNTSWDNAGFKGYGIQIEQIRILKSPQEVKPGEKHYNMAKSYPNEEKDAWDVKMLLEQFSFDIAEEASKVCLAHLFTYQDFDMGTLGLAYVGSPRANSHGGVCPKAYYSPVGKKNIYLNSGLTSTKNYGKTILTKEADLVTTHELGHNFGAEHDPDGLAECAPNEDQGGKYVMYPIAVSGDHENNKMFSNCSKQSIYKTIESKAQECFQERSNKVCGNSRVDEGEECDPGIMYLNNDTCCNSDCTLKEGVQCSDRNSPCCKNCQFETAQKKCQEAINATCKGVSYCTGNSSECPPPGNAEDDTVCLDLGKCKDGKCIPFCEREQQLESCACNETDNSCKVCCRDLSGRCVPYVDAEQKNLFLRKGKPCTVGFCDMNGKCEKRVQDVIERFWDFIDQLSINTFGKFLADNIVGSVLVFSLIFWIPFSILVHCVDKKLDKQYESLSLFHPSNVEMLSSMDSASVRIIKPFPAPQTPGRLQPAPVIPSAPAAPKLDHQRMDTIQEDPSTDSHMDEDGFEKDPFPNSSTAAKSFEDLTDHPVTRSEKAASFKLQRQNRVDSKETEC
Assay [4] has as its target T3, Collagenase 3 (Homo sapiens, UniProt P45452). Briefly: In vitro inhibition of Matrix metalloprotease-13.
Assay [5] addresses T2, Disintegrin and metalloproteinase domain-containing protein 17. Briefly: Inhibition of TNFalpha converting enzyme, TACE.
For assay [6], the target named is T1, Interstitial collagenase. Briefly: Inhibition of Matrix metalloprotease-1.
The target in assay [7] is T3, Collagenase 3.
Description: Inhibition of Matrix metalloprotease-13

Matrix metalloproteinase-9, sequence (P14780 whole entry): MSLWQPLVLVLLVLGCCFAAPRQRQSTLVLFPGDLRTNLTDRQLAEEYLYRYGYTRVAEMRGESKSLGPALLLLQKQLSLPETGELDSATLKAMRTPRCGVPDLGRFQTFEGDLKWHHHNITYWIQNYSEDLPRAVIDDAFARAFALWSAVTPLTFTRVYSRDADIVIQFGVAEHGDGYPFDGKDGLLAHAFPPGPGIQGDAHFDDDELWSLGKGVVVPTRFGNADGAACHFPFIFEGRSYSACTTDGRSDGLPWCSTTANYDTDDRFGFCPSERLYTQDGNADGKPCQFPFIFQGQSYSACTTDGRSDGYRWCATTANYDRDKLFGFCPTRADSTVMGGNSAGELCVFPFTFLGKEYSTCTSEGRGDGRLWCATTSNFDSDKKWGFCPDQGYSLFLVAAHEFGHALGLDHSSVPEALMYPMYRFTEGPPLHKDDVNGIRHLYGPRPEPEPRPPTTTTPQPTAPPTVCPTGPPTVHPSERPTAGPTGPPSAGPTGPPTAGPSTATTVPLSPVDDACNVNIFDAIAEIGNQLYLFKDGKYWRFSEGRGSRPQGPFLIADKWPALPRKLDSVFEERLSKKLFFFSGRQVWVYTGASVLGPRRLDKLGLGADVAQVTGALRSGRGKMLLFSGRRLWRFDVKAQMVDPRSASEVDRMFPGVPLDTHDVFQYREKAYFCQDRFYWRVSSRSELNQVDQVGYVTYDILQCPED

Take `COc1ccc(S(=O)(=O)N(Cc2ccc(OCCN3CCCCC3)cc2)c2c(C)cccc2C(=O)NO)cc1`: the IC50 in assay [1] came out at 7 nM.

Turning to `CCN(CC)CC#CCN(c1c(C)cc(Br)cc1C(=O)NO)S(=O)(=O)c1ccc(OC)cc1`, the IC50 is 150 nM against Interstitial collagenase [2], 14 nM in assay [1], 36 nM in assay [3] and 7 nM on Collagenase 3 [4].

In assay [1], `COc1ccc(S(=O)(=O)N(C)c2c(CN3CCN(C)CC3)cccc2C(=O)NO)cc1` displayed a 50% inhibitory concentration (IC50) of 1 nM.

Take `COC(=O)C1CCCN1Cc1cccc(C(=O)NO)c1N(C)S(=O)(=O)c1ccc(OC)cc1` (stereo not drawn): the IC50 at Interstitial collagenase [2] was 517 nM; in assay [1], 5 nM; in assay [3], 200 nM; on Collagenase 3 [4], 6 nM.

`COc1ccc(S(=O)(=O)N(C)c2c(CN3CCN(C)CC3)cc(-c3ccc4ccccc4c3)cc2C(=O)NO)cc1`: the IC50 was found to be 343 nM at Interstitial collagenase [2], 2 nM in assay [1], 49 nM in assay [3] and 3 nM on Collagenase 3 [4].

In the case of `COc1ccc(S(=O)(=O)N(Cc2ccc(CN(C)C)cc2)c2c(C)cccc2C(=O)NO)cc1`, in assay [1], the IC50 was 3 nM.

Consider `COc1ccc(S(=O)(=O)N(C)c2c(CN3CCN(C(=O)OC(C)(C)C)CC3)cc(Br)cc2C(=O)NO)cc1`, for which the IC50 stood at 674 nM against Interstitial collagenase [2], 7 nM in assay [1], 63 nM in assay [3] and 6 nM against Collagenase 3 [4].

On to `CN1CCN(Cc2cc(Br)cc(C(=O)NO)c2N(C)S(=O)(=O)c2ccc(Oc3ccc(Cl)cc3)cc2)CC1`, for which the IC50 in assay [1] came to 0.5 nM; in assay [5] it was 80 nM; against Interstitial collagenase [6], 82 nM; against Collagenase 3 [7], 0.7 nM.

With `COc1ccc(S(=O)(=O)N(C)c2c(CN3CCN(C)CC3)cc(Br)cc2C(=O)NO)cc1`, the IC50 against Interstitial collagenase [2] amounted to 194 nM; in assay [1] it was 2 nM.

As to `CCN(CC)Cc1cccc(C(=O)NO)c1N(C)S(=O)(=O)c1ccc(OC)cc1`, the values for the IC50 (against Interstitial collagenase [2]; in assay [1]; against Collagenase 3 [4]) were 744 nM, 8 nM and 84 nM, respectively.

Turning to `COc1ccc(S(=O)(=O)N(C)c2c(CN3CCN(C)CC3)cc(-c3ccc(OC(F)(F)F)cc3)cc2C(=O)NO)cc1`, the IC50 against Interstitial collagenase [2] was determined as 745 nM; in assay [1], 2 nM; in assay [3], 210 nM; on Collagenase 3 [4] it was 4 nM.

Turning to `COc1ccc(S(=O)(=O)N(Cc2ccc(N3CCN(C)CC3)cc2)c2c(C)cccc2C(=O)NO)cc1`, in assay [1], the IC50 was 7 nM.

For `CN1CCN(Cc2cccc(C(=O)NO)c2N(C)S(=O)(=O)c2ccc(Oc3ccc(Cl)cc3)cc2)CC1`, the IC50 against Interstitial collagenase [2] is 155 nM; in assay [1] it was 1 nM; in assay [3] it was 122 nM; at Collagenase 3 [4], 0.8 nM.

Regarding `COc1ccc(S(=O)(=O)N(CC#CCN2CCN(C)CC2)c2c(C)cc(Br)cc2C(=O)NO)cc1`, the results for the concentration for half-maximal inhibition (IC50) (in assay [1]; in assay [3]; on Collagenase 3 [4]) were 10 nM, 26 nM and 6 nM, respectively.

As for `COc1ccc(S(=O)(=O)N(C)c2c(CN3CCN(c4ccccc4)CC3)cc(Br)cc2C(=O)NO)cc1`, the concentration for half-maximal inhibition (IC50) was determined as 444 nM against Interstitial collagenase [2], 3 nM in assay [1], 87 nM in assay [3] and 3 nM against Collagenase 3 [4].

On to `COc1ccc(S(=O)(=O)N(Cc2cccnc2)c2c(C)cccc2C(=O)NO)cc1`, for which the IC50 at Interstitial collagenase [2] is 329 nM and 391 nM; in assay [3], 356 nM and 645 nM.

Regarding `COc1ccc(S(=O)(=O)N(Cc2ccc(OCCN3CCCCC3)cc2)c2c(C)cc(Br)cc2C(=O)NO)cc1`, the values for the IC50 (in assay [1]; on Collagenase 3 [4]) were 2 nM and 3 nM, respectively.

As a reminder, the IC50 is the concentration that inhibits the measured activity by half. Lower therefore signals greater potency.

Source of the values: ChEMBL document CHEMBL1133846, “The discovery of anthranilic acid-based MMP inhibitors. Part 3: incorporation of basic amines” (Bioorg Med Chem Lett, 2001).
